US8138191B2, “Inhibitor compounds and cancer treatment methods” (Critical Outcome Technologies Inc., priority 2007, dated 2012)
Values belong to the compound of their own block, whether it stands above or below them.

Assays:
CYP2C8 = target: T1, CYP2C8 (Homo sapiens, UniProt P10632); test: CYP2C8 Inhibition (HLM, paclitaxel substrate)
T1 sequence (P10632 1-490): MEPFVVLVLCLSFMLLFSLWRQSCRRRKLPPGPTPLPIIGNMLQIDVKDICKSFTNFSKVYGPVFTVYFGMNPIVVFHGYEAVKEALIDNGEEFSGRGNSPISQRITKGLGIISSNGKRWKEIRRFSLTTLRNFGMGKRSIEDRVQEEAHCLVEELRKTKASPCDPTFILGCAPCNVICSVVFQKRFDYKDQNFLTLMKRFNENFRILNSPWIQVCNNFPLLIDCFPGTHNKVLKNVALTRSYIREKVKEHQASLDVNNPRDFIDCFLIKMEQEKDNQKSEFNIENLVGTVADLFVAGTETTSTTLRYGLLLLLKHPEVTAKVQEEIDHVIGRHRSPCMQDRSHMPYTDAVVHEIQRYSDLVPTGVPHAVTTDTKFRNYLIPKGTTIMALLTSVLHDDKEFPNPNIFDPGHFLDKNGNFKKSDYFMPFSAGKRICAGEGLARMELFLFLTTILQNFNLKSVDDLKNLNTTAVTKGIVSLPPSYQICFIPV

CYP2C19 = CYP2C19 (Homo sapiens, UniProt P33261); test: CYP2C19 Inhibition (HLM, omeprazole substrate)
CYP2C9 = CYP2C9 (Homo sapiens, UniProt P11712); test: CYP2C9 Inhibition (HLM, diclofenac substrate)
Chain of CYP2C9 (P11712 whole entry): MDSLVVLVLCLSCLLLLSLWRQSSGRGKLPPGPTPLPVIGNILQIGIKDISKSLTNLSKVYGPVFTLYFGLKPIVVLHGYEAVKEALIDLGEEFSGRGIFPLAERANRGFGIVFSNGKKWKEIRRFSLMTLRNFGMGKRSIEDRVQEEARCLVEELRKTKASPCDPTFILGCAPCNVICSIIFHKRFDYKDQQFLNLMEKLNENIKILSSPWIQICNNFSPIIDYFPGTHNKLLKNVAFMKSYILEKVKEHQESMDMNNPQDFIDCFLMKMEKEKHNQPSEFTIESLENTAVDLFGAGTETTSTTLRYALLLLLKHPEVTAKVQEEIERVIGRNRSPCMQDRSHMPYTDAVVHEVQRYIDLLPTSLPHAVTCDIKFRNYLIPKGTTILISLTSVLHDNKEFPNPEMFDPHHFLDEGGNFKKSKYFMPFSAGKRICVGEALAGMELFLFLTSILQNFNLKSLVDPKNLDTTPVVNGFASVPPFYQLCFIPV

Chain of CYP2C19 (P33261 whole entry): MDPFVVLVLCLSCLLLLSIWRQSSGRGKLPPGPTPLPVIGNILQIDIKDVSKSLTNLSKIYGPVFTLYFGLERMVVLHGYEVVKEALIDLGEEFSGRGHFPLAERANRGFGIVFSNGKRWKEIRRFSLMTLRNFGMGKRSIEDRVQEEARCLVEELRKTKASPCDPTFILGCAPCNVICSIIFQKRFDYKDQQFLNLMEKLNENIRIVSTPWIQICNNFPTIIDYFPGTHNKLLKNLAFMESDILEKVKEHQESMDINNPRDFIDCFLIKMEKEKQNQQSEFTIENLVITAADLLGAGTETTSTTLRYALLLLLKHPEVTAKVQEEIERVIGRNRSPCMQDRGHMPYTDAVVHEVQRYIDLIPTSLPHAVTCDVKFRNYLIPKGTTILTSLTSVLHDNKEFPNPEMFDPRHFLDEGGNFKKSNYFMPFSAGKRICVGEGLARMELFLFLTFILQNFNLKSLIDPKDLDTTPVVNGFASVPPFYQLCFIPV

nH (CYP2C8): 1.2
SMILES: COC(=O)C1=C(C)NC(C)=C(C(=O)OCCN(C)Cc2ccccc2)C1c1cccc([N+](=O)[O-])c1 (stereo not drawn) [Nicardipine]

nH (CYP2C19): 1.1
SMILES: CCN(CC)CC#CCOC(=O)C(O)(c1ccccc1)C1CCCCC1 (stereo not drawn) [Oxybutynin]

SMILES: Nc1ccc(S(=O)(=O)Nc2ccnn2-c2ccccc2)cc1 [Sulfaphenazole]
nH (CYP2C9): 1.1
